Data reported in PubChem BioAssay (NCI).
Several values for one entry are separate records, joined by “and”; a condition that tells them apart may be missing. Identical values can stand only once.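 Following 48 hours of exposure in 96-well plates, responses at five concentrations were used to interpolate endpoints linearly. GI50 = concentration required for 50% inhibition of growth. TGI: total growth inhibition.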

Tests used:
Test in all cases: growth of human tumour cells (NCI), 48 h
T-47D breast = test system: T-47D breast
UO-31 renal = test system: UO-31 renal
HCT-116 colon = test system: HCT-116 colon
PC-3 prostate = test system: PC-3 prostate
SR leukemia = test system: SR leukemia
COLO 205 colon = test system: COLO 205 colon
TK-10 renal = test system: TK-10 renal
SF-539 CNS = test system: SF-539 CNS
A498 renal = test system: A498 renal
HOP-62 NSCLC = test system: HOP-62 NSCLC

| Structure (SMILES) | TGI (T-47D breast) [µM] | TGI (UO-31 renal) | TGI (HCT-116 colon) [µM] | TGI (PC-3 prostate) [µM] | TGI (SR leukemia) [µM] | TGI (COLO 205 colon) [µM] | TGI (TK-10 renal) [µM] | TGI (SF-539 CNS) | TGI (A498 renal) | TGI (HOP-62 NSCLC) [µM] | GI50 (T-47D breast) | GI50 (UO-31 renal) [µM] | GI50 (HCT-116 colon) [µM] | GI50 (PC-3 prostate) | GI50 (SR leukemia) | GI50 (COLO 205 colon) | GI50 (TK-10 renal) | GI50 (SF-539 CNS) [µM] | GI50 (A498 renal) [µM] | GI50 (HOP-62 NSCLC) |
| --- | --- | --- | --- | --- | --- | --- | --- | --- | --- | --- | --- | --- | --- | --- | --- | --- | --- | --- | --- | --- |
| O=S(=O)(O)c1ccc2cc(N=Nc3c(O)ccc4ccccc34)ccc2c1 | > 100 | > 100 µM | > 100 | > 100 | > 100 | > 100 | > 100 | > 100 µM | > 100 µM | > 100 |  |  |  |  |  |  |  |  |  |  |
| O=c1[nH]c2nc[nH]c2c(=O)n1C1CCCCC1 | > 100 | > 100 µM | > 100 | > 100 | > 100 | > 100 | > 100 | > 100 µM | > 100 µM | > 100 |  |  |  |  |  |  |  |  |  |  |
| O=C(O)CC12CC3CC(CC(O)(C3)C1)C2 | > 100 | > 100 µM | > 100 | > 100 | > 100 | > 100 | > 100 | > 100 µM | > 100 µM | > 100 |  |  |  |  |  |  |  |  |  |  |
| O=C(O)CCCc1ccccc1 | > 1000 | 715 µM and > 1000 µM | > 1000 | > 1000 | > 1000 | > 1000 | > 1000 | 533 µM and > 1000 µM | 302 µM and > 1000 µM | > 1000 | 203 µM and > 1000 µM | > 1000 | > 1000 | 364 µM and > 1000 µM | 215 µM and 28.5 µM | 363 µM and > 1000 µM | 285 µM and > 1000 µM | > 1000 | > 1000 | 235 µM and > 1000 µM |
| OC1COC(OCc2ccccc2)C(O)C1O (configuration not stated) | > 100 | > 100 µM | > 100 | > 100 | > 100 | > 100 | > 100 | > 100 µM | > 100 µM | > 100 |  |  |  |  |  |  |  |  |  |  |
| c1ccc(COC2C3COC(O3)C(OCc3ccccc3)C2OCc2ccccc2)cc1 (configuration not stated) | > 100 | > 100 µM | > 100 | > 100 | 25.4 | > 100 | > 100 | > 100 µM | > 100 µM | > 100 |  |  |  |  |  |  |  |  |  |  |
| COC1=C2CC(C)CC(OC)C(OC(=O)CCCN)C(C)/C=C(\C)C(OC(N)=O)C(OC)/C=C\C=C(/C)C(=O)NC(=CC1=O)C2=O (configuration not stated) | 4.65 | 23.1 µM | 15.9 | 22.4 | 21.5 | 9.48 | 20.2 | 16.9 µM | 30.6 µM | 32 |  |  |  |  |  |  |  |  |  |  |
| CC(C)CCC[C@@H](C)[C@H]1CC[C@H]2C3=C[C@H](OS(=O)(=O)O)[C@@]4(O)C[C@@H](O)CC[C@]4(C)[C@@]3(O)CC[C@]12C | > 100 | > 100 µM | > 100 | > 100 | > 100 | > 100 | > 100 | > 100 µM | > 100 µM | > 100 |  |  |  |  |  |  |  |  |  |  |
| O=C(NCCCCCCCN1CCCCCCC1)C(C1CCCCC1)C1CCCCC1 | 23 | 21.3 µM | 21.5 | 21.1 | 6.84 | 8.64 | 25.6 | 24.6 µM | 15.5 µM | 14.4 |  |  |  |  |  |  |  |  |  |  |
| CN1CCC/C1=C1/C(=O)N(c2ccccc2)N=C1c1ccc[nH]1 | > 100 | > 100 µM | > 100 | > 100 | > 100 | > 100 | > 100 |  | > 100 µM | > 100 |  |  |  |  |  |  |  |  |  |  |
| CSc1c(C#N)c(S)n(-c2ccc(Cl)cc2)c(=O)c1C#N | > 100 | 95.8 µM | > 100 | > 100 | > 100 | > 100 | > 100 | > 100 µM | > 100 µM |  |  |  |  |  |  |  |  |  |  |  |
| c1cncc(CSc2ncnc3nc[nH]c23)c1 | > 100 | > 100 µM | > 100 | > 100 | > 100 | > 100 | > 100 |  | > 100 µM | > 100 |  |  |  |  |  |  |  |  |  |  |
| CCOC(=O)/C=C\C(C#N)(C#N)N=Cc1ccsc1 | 4.49 | 5.71 µM | 4.72 | 22.7 | 18.1 | 3.4 | 4.63 | 12.9 µM | 33.5 µM | 36.9 |  |  |  |  |  |  |  |  |  |  |
| COc1ccc(NC/C=C/C(=C/COC(C)=O)OC(C)=O)cc1 | 5.45 | 25 µM | 3.55 | 5.98 | 2.71 | 3.4 | 3.74 | 3.8 µM | 3.53 µM | 5.18 |  |  |  |  |  |  |  |  |  |  |
